Patent publication US20140309188A1, “USE OF PHARMACEUTICAL COMPOSITION COMPRISING DEOXYNUCLEOSIDE AND NUCLEOSIDE FOR TREATMENT OF TUMOR” (priority 2011, published 2014)
Several values for one entry are separate records, joined by “and”; a condition that tells them apart may be missing. Equal entries are not always repeated.

Assays:
Format in all cases: cell-based
[1] = tested on: Human hepatoma cells BEL-7402; assay: MTT growth inhibition on human hepatoma cells BEL-7402; conditions: for inhibition at 10000 µM (stock): Homo sapiens, Bel-7402, read-out: Growth inhibition rate (%) on tumor cells Bel-7402; for Growth inhibition rate (%) on Bel-7402: Example 3, concentrations same as Example 1
Procedure: (§1) Human hepatoma cells BEL-7402 and human lung cancer cells PG provided by Institute of Biochemistry and Cell Biology, SIBS, CAS were cultured in the culture medium RPMI 1640 comprising 10% fetal bovine serum. The cells in the exponential growth phase were collected, digested with 0.25% trypsin, inoculated to a 96-well plate with each well having 3×10^3 cells, and then cultured in an incubator having 5% CO2 at 37° C. for 24 hours. Each experimental group was provided with 8 wells. 60 μL of a nucleoside solution having a total concentration of 10.0 mmol/L was added to each well, and the culture medium was replenished to ensure each well to have a volume of 200 μL. The control group was administered with 5-FU having the same concentration as the nucleoside solution. The obtained cells were diluted with serum-free medium and filtered with sterile microporous membrane having an aperture size of 0.22 μm. […] Thereafter, 20 μL of MTT solution having a concentration of 5 mg/mL was added to each well of the 96-well plate, which was further cultured in the incubator having 5% CO2 at 37° C. for 4 hours. After the culture, the supernate in the wells was removed. 150 μL of DMSO was added to each well. The 96-well plate was shaken for 10 minutes to facilitate the dissolution of the crystals. An automatic microplate reader (Thermo, Multiskan MK3) was employed to measure the absorbancy at 570 nm. Each experimental group was provided with 8 wells, and each experiment was repeated for three times. Table 1 lists the average value of the three experiments.
(§2) Survival rate of tumor cells (%)=measured OD value of experimental wells/OD value of wells of control group
(§3) Growth inhibition rate of tumor cells=100%−Survival rate of tumor cells (%)
1. Experimental method: The experimental groups and the control group were administered with different nucleosides or a combination thereof, as listed in Table 3. Human hepatoma cells Bel-7402 was provided by Institute of Biochemistry and Cell Biology, SIBS, CAS. The experimental method was the same as that in Example 1. The concentrations of the nucleoside combination, the single nucleoside, and 5-FU are all the same as that in Example 1.

[2] = tested on: human lung cancer cells PG; assay: MTT growth inhibition on human lung cancer cells PG; conditions: 48 hours, 60 μL of 10.0 mmol/L solution per 200 μL well, average of three experiments; for inhibition at 10000 µM (stock): Homo sapiens, read-out: Growth inhibition rate (%) on tumor cells PG
Procedure: (§4) Human hepatoma cells BEL-7402 and human lung cancer cells PG provided by Institute of Biochemistry and Cell Biology, SIBS, CAS were cultured in the culture medium RPMI 1640 comprising 10% fetal bovine serum. The cells in the exponential growth phase were collected, digested with 0.25% trypsin, inoculated to a 96-well plate with each well having 3×10^3 cells, and then cultured in an incubator having 5% CO2 at 37° C. for 24 hours. Each experimental group was provided with 8 wells. 60 μL of a nucleoside solution having a total concentration of 10.0 mmol/L was added to each well, and the culture medium was replenished to ensure each well to have a volume of 200 μL. The control group was administered with 5-FU having the same concentration as the nucleoside solution. The obtained cells were diluted with serum-free medium and filtered with sterile microporous membrane having an aperture size of 0.22 μm. 48 hours later, cell morphology was observed and photographed by an inverted microscope. Thereafter, 20 μL of MTT solution having a concentration of 5 mg/mL was added to each well of the 96-well plate, which was further cultured in the incubator having 5% CO2 at 37° C. for 4 hours. After the culture, the supernate in the wells was removed. 150 μL of DMSO was added to each well. The 96-well plate was shaken for 10 minutes to facilitate the dissolution of the crystals. An automatic microplate reader (Thermo, Multiskan MK3) was employed to measure the absorbancy at 570 nm. Each experimental group was provided with 8 wells, and each experiment was repeated for three times. Table 1 lists the average value of the three experiments.
as §2, §3

[3] = tested on: Human colon cancer cell line HT-29; assay: MTT growth inhibition on human colon cancer cell line HT-29; conditions: 48 hours; concentrations same as Example 1 (total 10.0 mmol/L solution, 60 μL per 200 μL well)
Procedure: as §4, §2, §3
The experimental groups and the control group were administered with different nucleosides or a combination thereof, as listed in Table 2. Human colon cancer cell line HT-29 was provided by the Institute of Basic Medical Sciences (IBMS) of the Chinese Academy of Medical Sciences (CAMS). The experimental method was the same as that in Example 1. The concentrations of the nucleoside combination, the single deoxynucleoside, and 5-FU are all the same as that in Example 1.

[4] = tested on: Human gastric cancer cell lines BGC823; assay: MTT growth inhibition on human gastric cancer cell lines BGC823; conditions: concentrations same as Example 1
Procedure: as §1, §2, §3
The experimental groups and the control group were administered with different nucleosides or a combination thereof, as listed in Table 4. Human gastric cancer cell lines BGC823 was provided by the Institute of Basic Medical Sciences (IBMS) of the Chinese Academy of Medical Sciences (CAMS). The experimental method was the same as that in Example 1. The concentrations of the nucleoside combination, the single deoxynucleoside, and 5-FU are all the same as that in Example 1.

[5] = tested on: Human breast cancer cell lines Bcap-37; assay: MTT growth inhibition on human breast cancer cell lines Bcap-37; conditions: concentrations same as Example 1
Procedure: as §4, §2, §3
The experimental groups and the control group were administered with different nucleosides or a combination thereof, as listed in Table 5. Human breast cancer cell lines Bcap-37 was provided by the Institute of Basic Medical Sciences (IBMS) of the Chinese Academy of Medical Sciences (CAMS). The experimental method was the same as that in Example 1. The concentrations of the nucleoside combination, the single nucleoside, and 5-FU are all the same as that in Example 1.

[6] = tested on: Human cervical carcinoma Hela; assay: MTT growth inhibition on human cervical carcinoma Hela; conditions: concentrations same as Example 1
[7] = tested on: Human glioma cell line SHG-44; assay: MTT growth inhibition on human glioma cell line SHG-44; conditions: concentrations same as Example 1
Procedure: as §4, with “After the culture, the supernate in the wells was removed. 150 μL of DMSO was added to each well. The 96-well plate was shaken for 10 minutes to facilitate the dissolution of the crystals.” left out, “Each experimental group was provided with 8 wells, and each experiment was repeated for three times. Table 1 lists the average value of the three experiments.” left out
Survival rate of tumor cells (%)=measured OD value of experimental wells/OD value of wells of control group […]

[8] = tested on: Human pancreatic cancer cell line PANC-1; assay: MTT growth inhibition on human pancreatic cancer cell line PANC-1; conditions: different dosage ratios of dA, dG, C, total concentration same as Example 1
[9] = 48 hours, 60 μL of 10.0 mmol/L solution per 200 μL well, MTT, average of three experiments

Structure (SMILES) | inhibition at 10000 µM (stock) [1, 9] [%] | inhibition at 10000 µM (stock) [2] [%] | Growth inhibition rate (%) on HT-29 [3] | Growth inhibition rate (%) on BGC823 ([4]; 48 hours) [%] | Growth inhibition rate (%) on BGC823 ([4]; 72 hours) [%] | Growth inhibition rate (%) on Bcap-37 ([5]; 48 hours) [%] | Growth inhibition rate (%) on Bcap-37 ([5]; 72 hours) [%] | other results
Nc1ncnc2c1ncn2[C@H]1C[C@H](O)[C@@H](CO)O1 [dA, deoxyadenosine] | 96 | 94 | 86% | 89 | 91 |  |  | 
Nc1ccn([C@@H]2O[C@H](CO)[C@@H](O)[C@H]2O)c(=O)n1 [C, cytidine] | 65 | 53 |  |  |  | 65 | 71 | 
Nc1nc2c(ncn2[C@H]2C[C@H](O)[C@@H](CO)O2)c(=O)[nH]1 [dG, deoxyguanosine] | 95 | 96 | 91% | 85 | 90 |  |  | Growth inhibition rate (%) on Bel-7402 ([1]; 48 hours): 87%; Growth inhibition rate (%) on Bel-7402 ([1]; 72 hours): 93%
Nc1ncnc2c1ncn2[C@@H]1O[C@H](CO)[C@@H](O)[C@H]1O [A, adenosine] | 86 | 84 |  |  |  |  |  | 
Nc1nc2c(ncn2[C@@H]2O[C@H](CO)[C@@H](O)[C@H]2O)c(=O)[nH]1 [G, guanosine] | 83 | 87 |  |  |  |  |  | 
O=c1[nH]cc(F)c(=O)[nH]1 [5-FU, reference compound] |  |  | 96% and 95% and 91% and 93% | 91 | 95 | 92 | 95 | Growth inhibition rate (%) on tumor cells Bel-7402 [1, 9]: 91%; Growth inhibition rate (%) on Bel-7402 ([1]; 48 hours): 91%; Growth inhibition rate (%) on Bel-7402 ([1]; 72 hours): 95%; Growth inhibition rate (%) on tumor cells PG [2]: 90%; Growth inhibition rate (%) on Hela ([6]; 48 hours): 92%; Growth inhibition rate (%) on Hela ([6]; 72 hours): 96%; Growth inhibition rate (%) on SHG-44 ([7]; 48 hours): 91%; Growth inhibition rate (%) on SHG-44 ([7]; 72 hours): 96%; Growth inhibition rate (%) on human pancreatic cancer cell line PANC-1 ([8]; 48 hours): 93%; Growth inhibition rate (%) on human pancreatic cancer cell line PANC-1 ([8]; 72 hours): 95%
Cc1cn([C@H]2C[C@H](O)[C@@H](CO)O2)c(=O)[nH]c1=O [T, thymidine] | 87 | 88 | 85% |  |  |  |  | 
O=c1ccn([C@@H]2O[C@H](CO)[C@@H](O)[C@H]2O)c(=O)[nH]1 [U, uridine] | 49 | 52 |  |  |  | 58 | 67 | 
Nc1ccn([C@H]2C[C@H](O)[C@@H](CO)O2)c(=O)n1 [dC, deoxycytidine] | 86 | 84 | 89% |  |  |  |  | 
